“And” between values parts separate entries of the source, which are not always exact repeats. Equal values may be shown once. Read-outs that look alike come from different tables or passages of the source.
How the values were obtained:
Assay type in all cases: cell-based, human
[1] = system: MV4-11; assay: Cell proliferation assay: GI50
Outline: (§1)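 Suspension cells at 1 × 10^6 cells/mL were treated in triplicate, then incubated 1–3 h with MTS reagent (CellTiter 96 AQueous One) for colorimetric viable-cell read-out. After medium-only background subtraction, absorbance was expressed as % of untreated cells, and GI50 was fitted by non-linear regression.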

[2] = system: HL-60; assay: Cell proliferation assay: GI50; conditions: read-out: GI50
Outline: as §1

[3] = system: ML-2; assay: Cell proliferation assay: GI50
Outline: as §1

[4] = system: MOLM-13; assay: Cell proliferation assay: GI50
Outline: as §1

[5] = system: MV4-11; assay: Differentiation-apoptosis assay, CD11b / annexin-V / Sytox Green / myeloid markers flow cytometry; parameters: Cell viability (%): concentration or dose not given beside the values; conditions: MV4-11, 48 h treatment, replicates 1-3 (Suppl. Fig. 5A)
Method: (§2) Next, the cells were washed twice with phosphate-buffered saline (PBS) and resuspended in 1X Binding Buffer at a concentration of 1 × 10^6 cells/mL. An 8-µL aliquot of APC-CD11b (BD Pharmingen, Franklin Lakes, NJ, USA) and 1 µL of FITC annexin-V (AV) (BD Pharmingen, Franklin Lakes, NJ, USA) antibodies were added and incubated for 15 min at room temperature in the dark. Finally, after the addition of 400 µL of 1X Binding Buffer to each tube, samples were collected on a BD FACSCanto flow cytometer (Becton Dickinson, San Jose, CA, USA) and analyzed using FlowJo software.
(§3) For the rest of experiments, the mix of antibodies (2 µL of BV786-CD13, Cat No, 744748 BD; 1 µL of diluted 1:10 antibody of PB-HLADR, Cat No 307633, Biolegend; 5 µL of APCH7-CD14, Cat No 641394, BD) was added to 10 µL of Brilliant Stain Buffer Plus (Becton Dickinson, San Jose, CA, USA). Then, 1 million cells (volume of 250 µL) were added and incubated for 30 min at room temperature in darkness. After 10 min incubation at room temperature with 2 mL of FACSLysing 1X, cells were centrifuged at 540 g for 5 min and washed twice with FACSBuffer. Finally, after centrifugation at 540 g for 5 min cells were resuspended in FACSBuffer.

[6] = system: MOLM-13; assay: as above; parameters: Cell viability (%): concentration or dose not given beside the values; conditions: MOLM-13, 48 h treatment, replicates 1-3 (Suppl. Fig. 5A)
Method: as §2, §3

[7] = system: HL-60; assay: as above; parameters: Cell viability (%): concentration or dose not given beside the values; conditions: HL-60, 48 h treatment, replicates 1-3 (Suppl. Fig. 5A)
Outline: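 HL-60 cells were stained for the myeloid differentiation marker CD11b, with annexin-V and Sytox Green marking apoptosis and cell death. Cells were washed in PBS and resuspended at 1 × 10^6 cells/mL in binding buffer; marker staining of 1 million cells was for 30 min at room temperature in the dark, followed by red-cell lysis. Readout was flow cytometry.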

O=C(CCCCCCC(=O)Nc1ccccc1)NO [Vorinostat, reference compound]
GI50 ([1]; Homo sapiens, MV4-11, 48 h): 2.5 µM
GI50 ([1]; Homo sapiens, MV4-11, MV4-11, replicates 1-3, µM for the other inhibitors): 2.7 µM
GI50 ([1]; MV4-11, replicates 1-3, µM for the other inhibitors): 2.9 µM and 2 µM
GI50 ([2]; HL-60, replicates 1-3, µM for the other inhibitors): 4.9 µM and 5.6 µM
GI50 ([2]; Homo sapiens, HL-60, 48 h): 5.2 µM
GI50 ([2]; Homo sapiens, HL-60, HL-60, replicates 1-3, µM for the other inhibitors): 5.1 µM
GI50 ([3]; Homo sapiens, ML-2, 48 h): 4.5 µM
GI50 ([3]; Homo sapiens, ML-2, ML-2, replicates 1-3, µM for the other inhibitors): 4.3 µM
GI50 ([3]; ML-2, replicates 1-3, µM for the other inhibitors): 4.2 µM and 5 µM
GI50 ([4]; Homo sapiens, MOLM-13, 48 h): 3.2 µM
GI50 ([4]; Homo sapiens, MOLM-13, MOLM-13, replicates 1-3, µM for the other inhibitors): 3.1 µM
GI50 ([4]; MOLM-13, replicates 1-3, µM for the other inhibitors): 3 µM and 3.6 µM
CD11b (%) [5]: 15.2% and 20.7% and 19.4%
Cell viability (%) [5]: 86.1% and 89% and 91%
CD11b (%) [6]: 37.1% and 43.8% and 41.2%
Cell viability (%) [6]: 69.1% and 74.5% and 73.9%
CD11b (%) [7]: 30.8% and 39.8% and 27.7%
Cell viability (%) [7]: 74.2% and 83.6% and 75%

Reference: paper PMC11219871, “Epigenetic-based differentiation therapy for Acute Myeloid Leukemia” (Nature Communications, 2024)
